20 molecules from patent US12098144B2, “Piperazine indazole glucocorticoid receptor antagonists” (Corcept Therapeutics Incorporated, priority 2021, dated 2024) can be followed below.

The first assay has as its target T1, glucocorticoid receptor (Homo sapiens, UniProt P04150).
T1 construct: endogenous in cells; ATCC cat
T1 sequence (P04150 1-777): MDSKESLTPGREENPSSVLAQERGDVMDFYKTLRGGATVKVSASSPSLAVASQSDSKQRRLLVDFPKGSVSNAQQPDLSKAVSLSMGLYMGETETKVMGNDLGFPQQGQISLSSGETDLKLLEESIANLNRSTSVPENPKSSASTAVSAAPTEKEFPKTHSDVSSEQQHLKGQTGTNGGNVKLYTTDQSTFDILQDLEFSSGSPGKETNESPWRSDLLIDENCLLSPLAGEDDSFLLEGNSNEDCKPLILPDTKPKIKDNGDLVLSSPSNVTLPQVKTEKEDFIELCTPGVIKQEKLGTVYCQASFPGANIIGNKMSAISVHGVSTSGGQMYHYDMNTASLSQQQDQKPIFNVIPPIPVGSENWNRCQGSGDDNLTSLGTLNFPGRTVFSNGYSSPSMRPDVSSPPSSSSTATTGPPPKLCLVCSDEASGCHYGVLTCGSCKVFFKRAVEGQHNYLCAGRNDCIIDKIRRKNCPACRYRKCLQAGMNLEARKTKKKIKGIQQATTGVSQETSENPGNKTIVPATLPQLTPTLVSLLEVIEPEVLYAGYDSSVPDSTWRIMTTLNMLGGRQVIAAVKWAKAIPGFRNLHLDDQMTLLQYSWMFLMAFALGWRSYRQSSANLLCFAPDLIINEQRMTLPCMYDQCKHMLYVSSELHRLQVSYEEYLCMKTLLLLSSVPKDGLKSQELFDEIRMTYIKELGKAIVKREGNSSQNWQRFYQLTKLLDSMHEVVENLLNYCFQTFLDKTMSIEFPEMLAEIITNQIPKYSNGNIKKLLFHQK
Kind of assay: Hep G2 TAT IC50: inhibition of dexamethasone-induced TAT in HepG2 cells (384 well). In kind it is cell-based.
Details: not given
As for the experimental part:
Glucocorticoid mediated activation of TAT occurs by transactivation of glucocorticoid response elements in the TAT promoter by glucocorticoid receptor/agonist complex.
HepG2 cells were cultured using MEME media supplemented with 10% (v/v) foetal bovine serum, 2 mM L-glutamine, 1% (v/v) NEAA, and 1% (v/v) penstrep, at 37° C., 5%/95% (v/v) CO2/air.
Compounds were diluted from a 10 mM stock via an Echo Acoustic liquid handler into 10 μL assay media to generate a 10-point half-log dilution curve.
HepG2 cells were then lysed with 8 μL of cell lysis buffer containing a protease inhibitor cocktail for 15 minutes at 25° C. […] After a 2-hour incubation at 37° C. the reaction was terminated by the addition of 8 μL of 5 M aqueous potassium hydroxide solution, and the plates incubated for a further 30 minutes at 37° C.
[compound] and fitting the data to a 4-parameter logistic equation.
As to `Cc1cc2c(cnn2-c2ccc(F)cc2)cc1C1CN(S(=O)(=O)c2cccnn2)CCN1CCC(F)(F)F` (single isomer, unassigned) [Example 176, 1-(4-fluorophenyl)-6-methyl-5-(4-pyridazin-3-ylsulfonyl-1-(3,3,3-trifluoropropyl)piperazin-2-yl)indazole], the concentration for half-maximal inhibition (IC50) is 841 nM.

`Cc1cc2c(cnn2-c2ccc(F)cc2)cc1C1CN(S(=O)(=O)N2CCOCC2)CCN1CCC(F)(F)F` (single isomer, unassigned) [Example 177, 4-(3-(1-(4-fluorophenyl)-6-methyl-indazol-5-yl)-4-(3,3,3-trifluoropropyl)piperazin-1-yl)sulfonylmorpholine] had an IC50 of 2460 nM.

On to `Cc1cc2c(cnn2-c2ccc(F)cc2)cc1C1CN(S(=O)(=O)N2CCOCC2)CCN1CC1CCC1` (single isomer, unassigned) [Example 178, 4-(4-(cyclobutylmethyl)-3-[1-(4-fluorophenyl)-6-methyl-indazol-5-yl]piperazin-1-yl)sulfonylmorpholine], for which the IC50 stood at 3430 nM. This IC50 and that of the molecule before are within 1.5-fold of each other.

Molecule `Cc1cc2c(cnn2-c2ccc(F)cc2)cc1C1CN(S(=O)(=O)N2CCOCC2)CCN1CC1CC(F)(F)C1` (single isomer, unassigned) [Example 179, 4-(4-((3,3-difluorocyclobutyl)methyl)-3-(1-(4-fluorophenyl)-6-methyl-indazol-5-yl)piperazin-1-yl)sulfonylmorpholine] showed an IC50 of 2020 nM.

As for `Cc1cc2c(cnn2-c2ccc(F)cc2)cc1C1CN(S(=O)(=O)N2CCOCC2)CCN1CC1CCCC1` (single isomer, unassigned) [Example 180, 4-(4-(cyclopentylmethyl)-3-(1-(4-fluorophenyl)-6-methyl-indazol-5-yl)piperazin-1-yl)sulfonylmorpholine], the IC50 was 2090 nM.

On to `Cc1cc2c(cnn2-c2ccc(F)cc2)cc1C1CN(S(=O)(=O)N(C)C)CCN1CCC(F)(F)F` (single isomer, unassigned) [Example 181, 3-(1-(4-fluorophenyl)-6-methyl-indazol-5-yl)-N,N-dimethyl-4-(3,3,3-trifluoropropyl)piperazine-1-sulfonamide], for which half-maximal inhibition (IC50) required 1660 nM.

As for `Cc1cc2c(cnn2-c2ccc(F)cc2)cc1C1CN(S(=O)(=O)N(C)C)CCN1CC1CCC1` (single isomer, unassigned) [Example 182, 4-(cyclobutylmethyl)-3-(1-(4-fluorophenyl)-6-methyl-indazol-5-yl)-N,N-dimethyl-piperazine-1-sulfonamide], the midpoint of inhibition, the IC50, lay at 3590 nM.

Turning to `Cc1cc2c(cnn2-c2ccc(F)cc2)cc1C1CN(S(=O)(=O)N(C)C)CCN1CC1CC(F)(F)C1` (single isomer, unassigned) [Example 183, 4-((3,3-difluorocyclobutyl)methyl)-3-(1-(4-fluorophenyl)-6-methyl-indazol-5-yl)-N,N-dimethyl-piperazine-1-sulfonamide], the midpoint of inhibition, the IC50, lay at 2660 nM. This IC50 and that of the molecule before are within 1.5-fold of each other.

With `Cc1nc(S(=O)(=O)N2CCN(CC3CCC3)C(c3cc4cnn(-c5ccc(F)cc5)c4cc3C)C2)cs1` (single isomer, unassigned) [Example 184, 4-(4-(cyclobutylmethyl)-3-(1-(4-fluorophenyl)-6-methyl-indazol-5-yl)piperazin-1-yl)sulfonyl-2-methyl-thiazole], the midpoint of inhibition, the IC50, lay at 1160 nM.

As to `Cc1nc(S(=O)(=O)N2CCN(CC3CC(C)(C)C3)C(c3cc4cnn(-c5ccc(F)cc5)c4cc3C)C2)cs1` (single isomer, unassigned) [Example 185, 4-(4-((3,3-dimethylcyclobutyl)methyl)-3-(1-(4-fluorophenyl)-6-methyl-indazol-5-yl)piperazin-1-yl)sulfonyl-2-methyl-thiazole], half-maximal inhibition (IC50) required 1220 nM.

Regarding `Cc1nc(S(=O)(=O)N2CCN(CC3CCCC3)C(c3cc4cnn(-c5ccc(F)cc5)c4cc3C)C2)cs1` (single isomer, unassigned) [Example 186, 4-(4-(cyclopentylmethyl)-3-(1-(4-fluorophenyl)-6-methyl-indazol-5-yl)piperazin-1-yl)sulfonyl-2-methyl-thiazole], the IC50 was found to be 2400 nM.

For `Cc1ncc(S(=O)(=O)N2CCN(CC3CCCC3)C(c3cc4cnn(-c5ccc(F)cc5)c4cc3C)C2)s1` (single isomer, unassigned) [Example 187, 5-(4-(cyclopentylmethyl)-3-(1-(4-fluorophenyl)-6-methyl-indazol-5-yl)piperazin-1-yl)sulfonyl-2-methyl-thiazole], it took 1660 nM to reach half-maximal inhibition (IC50).

The molecule `Cc1cc2c(cnn2-c2ccc(F)cc2)cc1C1CN(S(=O)(=O)c2cccnn2)CCN1CC(C)C` (single isomer, unassigned) [Example 190, 1-(4-fluorophenyl)-5-(1-isobutyl-4-pyridazin-3-ylsulfonyl-piperazin-2-yl)-6-methyl-indazole] showed an IC50 of 1070 nM.

In turn, `Cc1cc2c(cnn2-c2ccc(F)cc2)cc1C1CN(S(=O)(=O)N2CCOCC2)CCN1Cc1ccccc1` (single isomer, unassigned) [Example 214, 4-(4-benzyl-3-(1-(4-fluorophenyl)-6-methyl-indazol-5-yl)piperazin-1-yl)sulfonylmorpholine] yielded an IC50 of 2750 nM.

For the molecule `Cc1cc2c(cnn2-c2ccc(F)cc2)cc1C1CN(S(=O)(=O)N2CCOCC2)CCN1CCc1ccccc1` (single isomer, unassigned) [Example 215, 4-(3-(1-(4-fluorophenyl)-6-methyl-indazol-5-yl)-4-(2-phenylethyl)piperazin-1-yl)sulfonylmorpholine], the IC50 was found to be 3980 nM. The IC50 values of the last two molecules are within 1.5-fold of each other.

Take `Cc1cc2c(cnn2-c2ccc(F)cc2)cc1C1CN(S(=O)(=O)c2cnn(C)n2)CCCN1CCC(F)(F)F` (centres unmarked) [Example 173, 1-(4-fluorophenyl)-6-methyl-5-(4-(2-methyltriazol-4-yl)sulfonyl-1-(3,3,3-trifluoropropyl)-1,4-diazepan-2-yl)indazole]: it took 2750 nM to reach half-maximal inhibition (IC50).

As for `CCn1cc(S(=O)(=O)N2CCN(CCC(F)(F)F)C(c3cc4cnn(-c5cc(C)c(=O)n(C)c5)c4cc3C)C2)cn1` (centres unmarked) [Example 174, 5-(5-(4-(1-ethylpyrazol-4-yl)sulfonyl-1-(3,3,3-trifluoropropyl)piperazin-2-yl)-6-methyl-indazol-1-yl)-1,3-dimethyl-pyridin-2-one], the midpoint of inhibition, the IC50, lay at 191 nM.

For a further assay, the target named is T1, glucocorticoid receptor. Put plainly: Hep G2 TAT Ki: inhibition of dexamethasone-induced TAT in HepG2 cells (96 well). Type of assay: cell-based. The settings on record: challenge of 100 nM dexamethasone, IC50 converted to Ki by Cheng and Prusoff equation. An outline of the steps: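 Cells lysed 15 min at 4 °C; TAT enzyme reaction 2 h at 37 °C, stopped with KOH, 30 min further at 37 °C. Inhibition fitted to 4-parameter logistic.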
With `Cc1cc2c(cnn2-c2ccc(=O)n(C)c2)cc1C1CN(S(=O)(=O)c2cnn(C)n2)CCN1CCC(F)(F)F` (centres unmarked) [Example 165, 1-methyl-5-(6-methyl-5-(4-((2-methyl-2H-1,2,3-triazol-4-yl)sulfonyl)-1-(3,3,3-trifluoropropyl)piperazin-2-yl)-1H-indazol-1-yl)pyridin-2(1H)-one], the Ki was 81 nM. In other words, the double-digit nanomolar range.

In the case of `Cc1cc2c(cnn2-c2cccnc2)cc1C1CN(S(=O)(=O)c2cnn(C)n2)CCN1CCC(F)(F)F` (centres unmarked) [Example 167, 6-methyl-5-(4-((2-methyl-2H-1,2,3-triazol-4-yl)sulfonyl)-1-(3,3,3-trifluoropropyl)piperazin-2-yl)-1-(pyridin-3-yl)-1H-indazole], the Ki was found to be 59 nM.

`Cc1cc2c(cnn2-c2cnn(C)c2)cc1C1CN(S(=O)(=O)c2cnn(C)n2)CCN1CCC(F)(F)F` (centres unmarked) [Example 168, 6-methyl-1-(1-methyl-1H-pyrazol-4-yl)-5-(4-((2-methyl-2H-1,2,3-triazol-4-yl)sulfonyl)-1-(3,3,3-trifluoropropyl)piperazin-2-yl)-1H-indazole] registered a Ki of 100 nM.

As a reminder, the IC50 is the concentration at which inhibition is half-maximal. Low values mean inhibition by little substance, high ones a need for much substance. For orientation: Ki means the equilibrium dissociation constant of an inhibitor or competing ligand from its target. Read a high Ki as a looser hold on the target.
